# Laboratory results taken from ChEMBL document CHEMBL3868639, “Great Therapeutic Potential of Peptidylarginine Deiminase 4 (PAD4) Inhibitors: Treatment of Rheumatoid Arthritis, Epigenetic Tools, Regulation of Pluripotency in Stem Cells, and More” (ACS Med Chem Lett, 2017).
# Target: Protein-arginine deiminase type-2 (Homo sapiens, UniProt Q9Y2J8)
# Test: Inhibition of N-terminal 6His/FLAG-tagged recombinant human PAD2 (1 to 665 residues) expressed in baculovirus infected sf9 cells using N-a-benzoyl-L-arginine ethyl ester as substrate preincubated for 30 mins followed by substrate addition after 90 mins by DTT-based fluorescence assay
# Sequence of Protein-arginine deiminase type-2 (Q9Y2J8 whole entry, the tested form may be a part): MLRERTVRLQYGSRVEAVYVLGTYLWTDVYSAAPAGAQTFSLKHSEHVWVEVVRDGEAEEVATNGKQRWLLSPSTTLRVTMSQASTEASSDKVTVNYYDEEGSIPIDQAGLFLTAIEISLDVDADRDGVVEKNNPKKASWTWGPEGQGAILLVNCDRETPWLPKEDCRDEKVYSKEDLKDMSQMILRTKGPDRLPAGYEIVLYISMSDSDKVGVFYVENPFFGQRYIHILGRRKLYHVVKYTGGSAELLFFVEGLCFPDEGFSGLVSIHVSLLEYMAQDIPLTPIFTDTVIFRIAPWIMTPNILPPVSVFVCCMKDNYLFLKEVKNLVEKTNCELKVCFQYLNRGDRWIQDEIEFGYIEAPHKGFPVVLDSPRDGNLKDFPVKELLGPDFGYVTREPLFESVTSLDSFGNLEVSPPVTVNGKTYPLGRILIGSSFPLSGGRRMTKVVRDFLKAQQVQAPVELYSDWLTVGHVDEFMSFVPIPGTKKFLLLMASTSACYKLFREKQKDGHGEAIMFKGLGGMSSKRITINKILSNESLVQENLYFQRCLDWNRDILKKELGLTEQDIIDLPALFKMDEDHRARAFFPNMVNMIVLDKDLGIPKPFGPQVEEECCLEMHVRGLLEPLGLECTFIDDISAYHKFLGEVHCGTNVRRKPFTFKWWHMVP
row,Compound,IC50 [µM]
1,COc1cc(C(=O)N2CC[C@@H](O)[C@@H](N)C2)cc2nc(-c3cc4ccccc4n3CC(F)(F)F)n(C)c12,10 to 79.4
2,Cn1c(-c2cc3ccccc3n2CC2CC2)nc2cc(C(=O)N3CCC[C@@H](N)C3)ccc21,10 to 79.4
3,COc1cc(C(=O)N2CCC[C@@H](N)C2)cc2nc(-c3cc4ccccc4n3CC(F)(F)F)n(C)c12,10 to 79.4
4,COc1cc(C(=O)N2CCC[C@@H](N)C2)cc2nc(-c3cc4ccccc4n3CC3CC3)n(C)c12,10 to 79.4
